SMILES strings stand for the structures. Where two headings read alike, the source gives them in different places.

The values below come from US20210108180A1, “ELECTROCONDUCTIVE DECELLULARIZED EXTRACELLULAR MATRIX COMPOSITIONS FOR PREPARATION OF ENGINEERED TISSUES AND RELATED METHODS” (University of Washington, priority 2019, published 2021).

The conditions of data set [1]: reported ETPC range; cited from earlier work.
Data set [2] has as its system cardiac tissues bioprinted using dECM bioink (hiPSC-derived cardiomyocytes and HS27A stromal cells). Put plainly: Cisapride cardiotoxicity dose response, FluoVolt imaging, tissues printed with dECM bioink. Type of data set: cell-based. The settings on record: Homo sapiens, HS-27A. As for the experimental part:
(§1) Tissues and support structures were bioprinted using a commercially available dual-extruder pneumatic bioprinter (Allevi BioBot 1). Five pairs of polycaprolactone (PCL) posts 1 mm in diameter, 5 mm tall, and 10 mm apart were printed in each well of a standard 6-well plate. An approximately 2 mm thick layer of NOA 83H resin (Norland Optical Adhesives) was then deposited onto the bottom of each well and cured by a 30 min exposure to UV light. Plates containing anchored posts were then sterilized by immersion in 70% v/v ethanol and subsequent UV light exposure. Sacrificial wells 12 mm×5 mm×1 mm (length×width×depth) were then printed around each post pair using 40% w/v Pluronic F-127, followed by approximately 50 μL of cell-laden hydrogel bioinks with the same cell densities as used in the EHT platform (20×10^6 hiPSC-derived cardiomyocytes/mL and 5×10^6 HS27A stromal cells/mL). Completed plates were then incubated at 37° C. and 5% CO2 for approximately 60 min, after which 5 mL of RPMI/B-27 with insulin (supplemented with Y-27632 dihydrochloride ROCK inhibitor and 1% penicillin/streptomycin) was added to each well. After 24 hrs, the media was replaced with fresh RPMI/B-27 with insulin and media changes were conducted every other day until tissues were used for drug screening. Exemplary cardiac tissues were bioprinted using dECM and dECM-rGO bioinks disclosed herein and cultured for 14 and 35 days. At these time points, tissues were washed with warm PBS before being incubated in medium containing a 1000X dilution of stock FluoVolt for 1 hr at 37° C., after which tissues were washed twice with warm Tyrode's buffer and incubated in Tyrode's containing 0.01, 0.1, 1, 5, 10, 50, 100, and 1000 nM cisapride (Sigma-Aldrich) dissolved in dimethyl sulfoxide (DMSO) for 45 mins. A group of tissues were also incubated in Tyrode's containing no cisapride, but an equivalent volume of DMSO (1 μL DMSO/mL Tyrode's). Functional response of these tissues to administered drug was assessed using FluoVolt dye in conjunction with live-tissue imaging as described above. Change in beat interval (ABI) was determined by measuring that duration of elapsed time between individual beats (the beat interval) and calculating the difference in this interval from one beat to the next. APD90 values were calculated as described above. Best-fit dose response curves were calculated using GraphPad Prism software. Drug concentration values were first transformed to a log scale and APD90 or ABI values were normalized such that the lowest value was set at 0% and the largest value at 100%. Finally, the normalized data was fit to a non-linear dose response curve using a least squares fit.

In data set [3] the test system is cardiac tissues bioprinted using dECM-rGO bioink (hiPSC-derived cardiomyocytes and HS27A stromal cells). Put plainly: Cisapride cardiotoxicity dose response, FluoVolt imaging, tissues printed with dECM-rGO bioink. It counts as cell-based. The settings on record: Homo sapiens, HS-27A. As for the experimental part:
as §1

Setting [4] is: 336 h, Day 14 of culture, change in beat interval, read-out: IC50 (ΔBI).
The mark [5] stands for this setting: Day 35 of culture, change in beat interval, read-out: IC50 (ΔBI).
[6] abbreviates: Day 35 of culture, read-out: IC50 (APD90).

A word on the IC50: it is the concentration that inhibits the measured activity by half. Turning to `COc1cc(N)c(Cl)cc1C(=O)NC1CCN(CCCOc2ccc(F)cc2)CC1OC` (stereo not drawn) [cisapride], the “effective therapeutic plasma concentration (ETPC)” value in data set [1] was 2.6 to 4.9 nM. The IC50 in data set [2] (setting [4]) is 73.4 ± 1.4 nM; in data set [2] (336 h, Day 14 of culture, read-out: IC50 (APD90)), 61.8 ± 1.4 nM; in data set [2] (setting [5]), 7.3 ± 1.2 nM; in data set [2] (setting [6]) it was 2 ± 1.3 nM; in data set [3] (setting [4]) it was 8.6 ± 1.2 nM; in data set [3] (Day 14 of culture, 45 min cisapride, read-out: IC50 (APD90)), 2.5 ± 1.3 nM. For the same compound, the IC50 is 3.1 ± 1.3 nM in data set [3] (setting [5]) and 1.8 ± 1.4 nM in data set [3] (setting [6]).
